# Measured values taken from US11492385B2, “Long-acting co-agonists of the glucagon and GLP-1 receptors” (Merck Sharp & Dohme Corp., priority 2015, dated 2022).
# Starred links: 1 amine or outer side, 2 acyl side, 3 side chain; linkers in the order of their positions; H or OH if unused. Non-standard residues stand in square brackets, D forms with d. Residues, ends and D or L forms follow the SMILES beside them. Groups on a side chain read outwards from the residue. *: point of attachment. Phe(4-CH2NH2) = NCc1ccc(C[C@H](N)C(=O)O)cc1; C18 diacid = O=C(O)CCCCCCCCCCCCCCCCC(=O)*; C16 diacid = O=C(O)CCCCCCCCCCCCCCC(=O)*; γGlu = O=C(O)[C@H](CCC(=O)[*:2])N[*:1]; Met(O2) = CS(=O)(=O)CC[C@H](N)C(=O)O; αMeD = C[C@](N)(CC(=O)O)C(=O)O; αMeL = CC(C)C[C@](C)(N)C(=O)O; AEEA = NCCOCCOCC(=O)O; Aib = CC(C)(N)C(=O)O
# How the values were obtained:
# human GLP1R = target: T1, human GLP1R (Homo sapiens, UniProt P43220); assay: cAMP activity assay, cells expressing human GLP1R; format: cell-based; details: cAMP production, assay buffer with or without 20% human serum (not stated which)
# T1 construct: expressed in transfected cells; kept under Blasticidin and Hygromycin selection
# T1 sequence (P43220 24-463): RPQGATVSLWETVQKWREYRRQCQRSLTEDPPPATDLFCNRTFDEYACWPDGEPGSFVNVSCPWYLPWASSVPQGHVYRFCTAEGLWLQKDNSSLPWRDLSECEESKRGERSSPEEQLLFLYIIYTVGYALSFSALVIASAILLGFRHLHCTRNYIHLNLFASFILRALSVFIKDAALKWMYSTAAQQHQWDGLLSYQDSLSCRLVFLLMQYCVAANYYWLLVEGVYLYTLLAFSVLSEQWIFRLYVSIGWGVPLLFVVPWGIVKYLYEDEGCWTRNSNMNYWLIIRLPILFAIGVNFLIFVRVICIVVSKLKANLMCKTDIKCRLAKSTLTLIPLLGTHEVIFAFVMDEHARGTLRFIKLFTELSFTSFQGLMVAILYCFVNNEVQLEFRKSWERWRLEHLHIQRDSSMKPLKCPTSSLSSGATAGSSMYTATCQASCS
# Experimental: (§1) Activity of the peptides at the Glucagon receptor (GCGR) and GLP-1 receptor (GLP1R) was measured in a cAMP activity assay. Peptides were dissolved in 100% DMSO and serially diluted to generate 10 point titrations. The peptide solutions were then transferred into 384-well assay plates (150 nL/well). […] Production of cAMP was determined using […] kits (DiscoverX) following manufacturer protocol. The plates were incubated for overnight at room temperature in the dark. Luminescence was measured using an EnVision Multilabel plate reader (Perkin Elmer). Native GLP-1 and Glucagon (Bachem) are used as control peptides. EC50 values were calculated using uses a 4 parameter logistic fit based on the Levenberg-Marquardt algorithm.
# human GCGR = target: T2, human GCGR (Homo sapiens, UniProt P47871); assay: cAMP activity assay, cells expressing human GCGR; format: cell-based; details: for EC50: cAMP production, cells expressing human GCGR, assay buffer with or without 20% human serum (not stated which), read-out: GCGR EC50 human; for hGCGR/hGLP1R (hTone): ratio of human GCGR EC50 to human GLP1R EC50
# T2 construct: expressed in transfected cells; kept under Blasticidin and Hygromycin selection
# T2 sequence (P47871 26-477): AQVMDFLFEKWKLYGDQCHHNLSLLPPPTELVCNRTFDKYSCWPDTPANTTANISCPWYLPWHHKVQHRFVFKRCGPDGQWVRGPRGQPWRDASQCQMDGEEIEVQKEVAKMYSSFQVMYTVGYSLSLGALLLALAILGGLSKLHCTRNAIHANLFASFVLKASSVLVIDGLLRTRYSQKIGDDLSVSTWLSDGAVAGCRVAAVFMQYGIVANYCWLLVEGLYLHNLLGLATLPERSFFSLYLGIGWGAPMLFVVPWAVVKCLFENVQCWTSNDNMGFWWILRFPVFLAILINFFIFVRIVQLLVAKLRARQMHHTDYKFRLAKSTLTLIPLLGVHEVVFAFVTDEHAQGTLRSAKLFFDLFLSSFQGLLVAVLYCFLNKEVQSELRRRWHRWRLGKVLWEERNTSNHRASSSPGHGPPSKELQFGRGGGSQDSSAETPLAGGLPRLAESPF
# Experimental: as §1
SMILES,EC50 (human GLP1R),EC50 (human GCGR),hGCGR/hGLP1R (hTone) (human GCGR)
CC(C)C[C@H](NC(=O)[C@H](Cc1ccc(O)cc1)NC(=O)[C@H](CCCCN)NC(=O)[C@H](CO)NC(=O)[C@H](Cc1ccc(O)cc1)NC(=O)[C@H](CC(=O)O)NC(=O)[C@H](CO)NC(=O)[C@@H](NC(=O)[C@H](Cc1ccccc1)NC(=O)[C@@H](NC(=O)CNC(=O)[C@H](CCC(N)=O)NC(=O)[C@@H](CO)NC(=O)[C@@H](N)Cc1c[nH]cn1)[C@@H](C)O)[C@@H](C)O)C(=O)N[C@@H](CC(=O)O)C(=O)N[C@@H](C)C(=O)N[C@@H](CCCNC(=N)N)C(=O)N[C@@H](C)C(=O)N[C@@H](C)C(=O)N[C@@H](CCC(N)=O)C(=O)N[C@@H](CCCCNC(=O)COCCOCCNC(=O)COCCOCCNC(=O)CC[C@H](NC(=O)CCCCCCCCCCCCCCC(=O)O)C(=O)O)C(=O)N[C@@H](Cc1ccccc1)C(=O)N[C@H](C(=O)N[C@@H](CCC(N)=O)C(=O)N[C@@H](Cc1c[nH]c2ccccc12)C(=O)N[C@@H](CC(C)C)C(=O)N[C@@H](CC(C)C)C(=O)N[C@@H](CC(=O)O)C(=O)N[C@H](C(N)=O)[C@@H](C)O)C(C)C [compound 3] (H-H[dS]QGTFTSDYSKYLDARAAQK([AEEA-AEEA-γGlu-C16 diacid])FVQWLLDT-NH2),200 pM,50 pM,0.23
CC(C)C[C@H](NC(=O)[C@H](Cc1ccc(O)cc1)NC(=O)[C@H](CCCCN)NC(=O)[C@H](CO)NC(=O)[C@H](CCCCNC(=O)COCCOCCNC(=O)COCCOCCNC(=O)CC[C@H](NC(=O)CCCCCCCCCCCCCCCCC(=O)O)C(=O)O)NC(=O)[C@H](CC(=O)O)NC(=O)[C@H](CO)NC(=O)[C@@H](NC(=O)[C@H](Cc1ccccc1)NC(=O)[C@@H](NC(=O)CNC(=O)[C@H](CCC(N)=O)NC(=O)[C@@H](CO)NC(=O)[C@@H](N)Cc1c[nH]cn1)[C@@H](C)O)[C@@H](C)O)C(=O)N[C@@H](CC(=O)O)C(=O)N[C@@H](C)C(=O)N[C@@H](CCCNC(=N)N)C(=O)N[C@@H](C)C(=O)N[C@@H](C)C(=O)N[C@@H](CCC(N)=O)C(=O)N[C@@H](CC(=O)O)C(=O)N[C@@H](Cc1ccccc1)C(=O)N[C@H](C(=O)N[C@@H](CCC(N)=O)C(=O)N[C@@H](Cc1c[nH]c2ccccc12)C(=O)N[C@@H](CC(C)C)C(=O)N[C@@H](CC(C)C)C(=O)N[C@@H](CC(=O)O)C(=O)N[C@H](C(N)=O)[C@@H](C)O)C(C)C [compound 6] (H-H[dS]QGTFTSDK([AEEA-AEEA-γGlu-C18 diacid])SKYLDARAAQDFVQWLLDT-NH2),1370 pM,1700 pM,1.24
CC(C)C[C@H](NC(=O)[C@H](Cc1c[nH]c2ccccc12)NC(=O)[C@H](CCCCNC(=O)COCCOCCNC(=O)COCCOCCNC(=O)CC[C@H](NC(=O)CCCCCCCCCCCCCCCCC(=O)O)C(=O)O)NC(=O)[C@@H](NC(=O)[C@H](Cc1ccccc1)NC(=O)[C@H](CC(=O)O)NC(=O)[C@H](CCC(N)=O)NC(=O)[C@H](C)NC(=O)[C@H](C)NC(=O)[C@H](CCCNC(=N)N)NC(=O)C(C)(C)NC(=O)[C@H](CC(=O)O)NC(=O)[C@H](CC(C)C)NC(=O)[C@H](Cc1ccc(O)cc1)NC(=O)[C@H](CCCCN)NC(=O)[C@H](CO)NC(=O)[C@H](Cc1ccc(O)cc1)NC(=O)[C@H](CC(=O)O)NC(=O)[C@H](CO)NC(=O)[C@@H](NC(=O)[C@H](Cc1ccccc1)NC(=O)[C@@H](NC(=O)CNC(=O)[C@H](CCC(N)=O)NC(=O)C(C)(C)NC(=O)[C@@H](N)Cc1c[nH]cn1)[C@@H](C)O)[C@@H](C)O)C(C)C)C(=O)N[C@@H](CCS(C)(=O)=O)C(=O)N[C@@H](CC(=O)O)C(=O)N[C@H](C(N)=O)[C@@H](C)O [compound 68] (H-H[Aib]QGTFTSDYSKYLD[Aib]RAAQDFVK([AEEA-AEEA-γGlu-C18 diacid])WL[Met(O2)]DT-NH2),866 pM,595 pM,0.7
CC(C)C[C@H](NC(=O)[C@H](Cc1ccc(O)cc1)NC(=O)[C@H](CCCCN)NC(=O)[C@H](CO)NC(=O)[C@H](Cc1ccc(O)cc1)NC(=O)[C@H](CC(=O)O)NC(=O)[C@H](CO)NC(=O)[C@@H](NC(=O)[C@H](Cc1ccccc1)NC(=O)[C@@H](NC(=O)CNC(=O)[C@H](CCC(N)=O)NC(=O)C(C)(C)NC(=O)[C@@H](N)Cc1c[nH]cn1)[C@@H](C)O)[C@@H](C)O)C(=O)N[C@@H](CC(=O)O)C(=O)N[C@@H](C)C(=O)N[C@@H](CCCNC(=N)N)C(=O)N[C@@H](C)C(=O)N[C@@H](C)C(=O)N[C@@H](CCC(N)=O)C(=O)N[C@@H](Cc1ccc(CNC(=O)COCCOCCNC(=O)COCCOCCNC(=O)CC[C@H](NC(=O)CCCCCCCCCCCCCCCCC(=O)O)C(=O)O)cc1)C(=O)N[C@@H](Cc1ccccc1)C(=O)N[C@H](C(=O)N[C@@H](CCC(N)=O)C(=O)N[C@@H](Cc1c[nH]c2ccccc12)C(=O)N[C@@H](CC(C)C)C(=O)N[C@@H](CC(C)C)C(=O)N[C@@](C)(CC(=O)O)C(=O)N[C@H](C(N)=O)[C@@H](C)O)C(C)C [compound 75] (H-H[Aib]QGTFTSDYSKYLDARAAQ[Phe(4-CH2NH2)]([AEEA-AEEA-γGlu-C18 diacid])FVQWLL[αMeD]T-NH2),420 pM,360 pM,0.9
CC(C)C[C@H](NC(=O)[C@H](Cc1c[nH]c2ccccc12)NC(=O)[C@H](CCC(N)=O)NC(=O)[C@@H](NC(=O)[C@H](Cc1ccccc1)NC(=O)[C@H](CC(=O)O)NC(=O)[C@H](CCC(N)=O)NC(=O)[C@H](C)NC(=O)[C@H](C)NC(=O)[C@H](CCCNC(=N)N)NC(=O)C(C)(C)NC(=O)[C@H](CC(=O)O)NC(=O)[C@H](CC(C)C)NC(=O)[C@H](Cc1ccc(O)cc1)NC(=O)[C@H](Cc1ccc(CNC(=O)COCCOCCNC(=O)COCCOCCNC(=O)CC[C@H](NC(=O)CCCCCCCCCCCCCCC(=O)O)C(=O)O)cc1)NC(=O)[C@H](CO)NC(=O)[C@H](Cc1ccc(O)cc1)NC(=O)[C@H](CC(=O)O)NC(=O)[C@H](CO)NC(=O)[C@@H](NC(=O)[C@H](Cc1ccccc1)NC(=O)[C@@H](NC(=O)CNC(=O)[C@H](CCC(N)=O)NC(=O)C(C)(C)NC(=O)[C@@H](N)Cc1c[nH]cn1)[C@@H](C)O)[C@@H](C)O)C(C)C)C(=O)N[C@@H](CCS(C)(=O)=O)C(=O)N[C@@H](CC(=O)O)C(=O)N[C@H](C(N)=O)[C@@H](C)O [compound 25] (H-H[Aib]QGTFTSDYS[Phe(4-CH2NH2)]([AEEA-AEEA-γGlu-C16 diacid])YLD[Aib]RAAQDFVQWL[Met(O2)]DT-NH2),20 pM,320 pM,14.00
CC(C)C[C@H](NC(=O)[C@H](Cc1ccc(O)cc1)NC(=O)[C@H](CCCCN)NC(=O)[C@H](CO)NC(=O)[C@H](Cc1ccc(O)cc1)NC(=O)[C@H](CC(=O)O)NC(=O)[C@H](CO)NC(=O)[C@@H](NC(=O)[C@H](Cc1ccccc1)NC(=O)[C@@H](NC(=O)CNC(=O)[C@H](CCC(N)=O)NC(=O)C(C)(C)NC(=O)[C@@H](N)Cc1c[nH]cn1)[C@@H](C)O)[C@@H](C)O)C(=O)N[C@@H](CC(=O)O)C(=O)N[C@@H](C)C(=O)N[C@@H](CCCNC(=N)N)C(=O)N[C@@H](C)C(=O)N[C@@H](C)C(=O)N[C@@H](CCCCNC(=O)COCCOCCNC(=O)COCCOCCNC(=O)CC[C@H](NC(=O)CCCCCCCCCCCCCCC(=O)O)C(=O)O)C(=O)N[C@@H](CC(=O)O)C(=O)N[C@@H](Cc1ccccc1)C(=O)N[C@H](C(=O)N[C@@H](CCC(N)=O)C(=O)N[C@@H](Cc1c[nH]c2ccccc12)C(=O)N[C@@](C)(CC(C)C)C(=O)N[C@@H](CCS(C)(=O)=O)C(=O)N[C@@H](CC(=O)O)C(=O)N[C@H](C(N)=O)[C@@H](C)O)C(C)C [compound 40] (H-H[Aib]QGTFTSDYSKYLDARAAK([AEEA-AEEA-γGlu-C16 diacid])DFVQW[αMeL][Met(O2)]DT-NH2),60 pM,650 pM,10.39
